In patent US7202258B2, “α- and β-amino acid hydroxyethylamino sulfamic acid derivatives useful as retroviral protease inhibitors” (G.D. Searle & Co., priority 1992, dated 2007):
Read-outs that look alike come from different tables or passages of the source.

Columns and labels:
HIV protease = target: T1, HIV protease (Human immunodeficiency virus type 1 group M subtype B, UniProt P04585); experiment: HIV protease enzyme assay (fluorescence, substrate 2-Ile-Nle-Phe(p-NO2)-Gln-ArgNH2); format: biochemical
T1 construct: HIV protease is diluted in the assay buffer to a final enzyme concentration of 12.3 nanomolar, based on a molecular weight of 10,780
Excerpt: The compounds of the present invention are effective HIV protease inhibitors. Utilizing an enzyme assay as described below, the compounds set forth in the examples herein disclosed inhibited the HIV enzyme. The preferred compounds of the present invention and their calculated IC50 (inhibiting concentration 50%, i.e., the concentration at which the inhibitor compound reduces enzyme activity by 50%) values are shown in Table 17. The enzyme method is described below. The substrate is 2-Ile-Nle-Phe(p-NO2)-Gln-ArgNH2. The positive control is MVT-101 (Miller, M. et al, Science, 246, 1149 (1989)]The assay conditions are as follows: • Assay buffer: 20 mM sodium phosphate, […] • 20% glycerol • 1 mM EDTA • 1 mM DTT • 0.1% CHAPS
The above described substrate is dissolved in DMSO, then diluted 10 fold in assay buffer. Final substrate concentration in the assay is 80 μM.
HIV protease is diluted in the assay buffer to a final enzyme concentration of 12.3 nanomolar, based on a molecular weight of 10,780.
The final concentration of DMSO is 14% and the final concentration of glycerol is 18%. The test compound is dissolved in DMSO and diluted in DMSO to 10× the test concentration; 10 μl of the enzyme preparation is added, the materials mixed and then the mixture is incubated at ambient temperature for 15 minutes. The enzyme reaction is initiated by the addition of 40 μl of substrate. The increase in fluorescence is monitored at 4 time points (0, 8, 16 and 24 minutes) at ambient temperature. Each assay is carried out in duplicate wells.

CEM cells = experiment: Intrinsic toxicity of test compound in uninfected CEM cells (MTT); format: cell-based; details: human, 7 days
Excerpt: Methods, 20, 309–321 (1988). […] A Frozen culture c.

HIV-1 = experiment: microbe, parasite or virus in culture; details: Human immunodeficiency virus 1, CCRF-CEM, 168 h, read-out: EC50 (nm)
Procedure: Assays were performed in 96-well tissue culture plates. CEM cells, a CD4^+ cell line, were grown in RPMI-1640 medium (Gibco) supplemented with a 10% fetal calf serum and were then treated with polybrene (2 μg/ml). An 80 μl volume of medium containing 1×10^4 cells was dispensed into each well of the tissue culture plate, no each well was added a 100 μl volume of test compound dissolved in tissue culture medium (or medium without test compound as a control) to achieve the desires final concentration and the cells were incubated at 37° C. for 1 hour. […] HIV-1 was diluted in culture medium to a concentration of 5×10^4 TCID50 per ml (TCID50=the dose of virus that infects 50% of cells in tissue culture), and a 20 μL volume of the virus sample (containing 1000 TCID50 of virus) was added to wells containing test compound and to wells containing only medium (infected control cells). Several wells received culture medium without virus (uninfected control cells). Likewise, the intrinsic toxicity of the test compound was determined by adding medium without virus to several wells containing test compound.
In experiments 2 and 4 the final concentrations of test compounds were 1, 10, 100 and 500 μg/ml. Either azidothymidine (AZT) or dideoxyinosine (ddI) was included as a positive drug control. […] DMSO was added to all control wells at an appropriate concentration.
Following the addition of virus, cells were incubated at 37° C. in a humidified, 5% CO2 atmosphere for 7 days. Test compounds could be added on days 0, 2 and 5 if desired. On day 7, post-infection, the cells in each well were resuspended and a 100 μl sample of each cell suspension was removed for assay. A 20 μL volume of a 5 mg/ml solution of 3-(4,5-dimethylthiazol-2-yl)-2,5-diphenyltetrazolium bromide (MTT) was added to each 100L cell suspension, and the cells were incubated for 4 hours at 27° C. in a 5% CO2 environment. […] To each sample was added 100 μl of 10% sodium dodecylsulfate in 0.01 N HCl to lyse the cells, and samples were incubated overnight. The absorbance at 590 nm was determined for each sample using a Molecular Devices microplate reader. Absorbance values for each set of wells is compared to assess viral control infection, uninfected control cell response as well as test compound by cytotoxicity and antiviral efficacy.

[1] = Table 18, compounds of Table 1C, read-out: IC50 or % Inhibition: IC50

SMILES | IC50 (HIV protease) [µM] | TD50 (nm) (CEM cells) | EC50 (HIV-1) [µM] | IC50 (HIV protease; Table 17, read-out: IC50) [µM] | IC50 (HIV protease; [1]) [µM]
CCCCNS(=O)(=O)N(CC(C)C)C[C@@H](O)[C@H](Cc1ccccc1)NC(=O)[C@@H](NC(=O)CN(C)C)C(C)(C)C [Entry 1] | 0.04 | 56,000 nM | 0.167 | – | –
CCCCNS(=O)(=O)N(CC(C)C)C[C@@H](O)[C@H](Cc1ccccc1)NC(=O)[C@H](CC(N)=O)NC(=O)c1ccc2ccccc2n1 [Entry 2] | 0.005 | 65,000 nM | 0.023 | – | –
CC(C)CN(C[C@@H](O)[C@H](Cc1ccccc1)NC(=O)[C@H](CC(N)=O)NC(=O)c1ccc2ccccc2n1)S(=O)(=O)N1CCN(C)CC1 [Entry 3] | 0.003 | 28,000 nM | 0.042 | – | –
CC(C)CN(C[C@@H](O)[C@H](Cc1ccccc1)NC(=O)[C@H](CC(N)=O)NC(=O)c1ccc2ccccc2n1)S(=O)(=O)NC(C)(C)C [Entry 4] | 0.002 | 39,000 nM | < 0.015 | – | –
COc1ccc(COC(=O)NC[C@@H](C)C(=O)N[C@@H](Cc2ccccc2)[C@H](O)CN(CC(C)C)S(=O)(=O)NC(C)(C)C)cc1 [Entry 5] | – | – | – | 0.013 | –
CC(C)CN(C[C@@H](O)[C@H](Cc1ccccc1)NC(=O)OCc1ccccc1)S(=O)(=O)N1CCCCC1 [G] | – | – | – | – | 0.066
CC(C)(C)NS(=O)(=O)N(CC1CCCCC1)C[C@@H](O)[C@H](Cc1ccccc1)NC(=O)OCc1ccccc1 [I] | – | – | – | – | 1.7
COC(=O)C(C)(C)NS(=O)(=O)N(CC(C)C)C[C@@H](O)[C@H](Cc1ccccc1)NC(=O)OCc1ccccc1 [J] | – | – | – | – | 2.69
